This test has as its target human P2X3 receptor (Homo sapiens (Human), UniProt P56373). Briefly: Evaluation of human P2X3 receptor inhibitory activity (Fluo-3 calcium fluorescence, FDSS 3000, ATP stimulation).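 Also: stimulus was 50 nM ATP with fluorescence followed for 3 min, and the response per well was peak post-ATP fluorescence divided by the reading at measurement start.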 The format is cell-based. The conditions noted are these: C6BU-1 cells stably expressing human P2X3 receptor.

SMILES strings stand for the structures.

Sequence of human P2X3 receptor (P56373 whole entry): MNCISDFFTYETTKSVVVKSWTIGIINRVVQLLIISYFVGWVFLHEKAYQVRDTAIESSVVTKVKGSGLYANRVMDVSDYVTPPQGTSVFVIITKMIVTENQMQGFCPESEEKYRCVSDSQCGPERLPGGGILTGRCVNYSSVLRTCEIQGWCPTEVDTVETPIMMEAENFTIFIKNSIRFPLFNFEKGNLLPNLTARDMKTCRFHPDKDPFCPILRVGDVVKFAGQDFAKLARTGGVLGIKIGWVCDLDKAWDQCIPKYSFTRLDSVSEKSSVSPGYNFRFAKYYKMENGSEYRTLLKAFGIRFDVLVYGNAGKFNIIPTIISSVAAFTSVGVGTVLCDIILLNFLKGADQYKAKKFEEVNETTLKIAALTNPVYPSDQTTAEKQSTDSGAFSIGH

Take `CC(C)Oc1ccc(/N=c2\[nH]c(=O)n(C[C@H](C)C(=O)O)c(=O)n2Cc2ccc(F)cc2)cc1Cl` [Compound I-0630]: the half-maximal inhibitory concentration (IC50) (as a rule, the concentration that gives 50% inhibition) amounted to 30 nM. The same measure for `COC(=O)[C@H](C)Cn1c(=O)[nH]/c(=N\c2ccc(OC(C)C)c(C)c2)n(CC2CCCCC2)c1=O` [Compound I-0631]: 10 nM.

Consider `CCOc1ccc(/N=c2\[nH]c(=O)n(C[C@@H](C)C(=O)OC)c(=O)n2CC2CCCCC2)cc1Cl` [Compound I-0632], for which the IC50 came to 11 nM.

For `CC(C)Oc1ccc(/N=c2\[nH]c(=O)n(C[C@H]3COC(C)(C)O3)c(=O)n2Cc2ccc(Cl)cc2)cc1Cl` [Compound I-0633], the IC50 turned out to be 4 nM.

On to `CC(C)Oc1ccc(/N=c2\[nH]c(=O)n(CCCNC(=N)N)c(=O)n2Cc2ccc(Cl)cc2)cc1F` [Compound I-0634], for which the IC50 was found to be 11 nM. The figure for `CC(C)Oc1ccc(/N=c2\[nH]c(=O)n(CC(=O)NN)c(=O)n2Cc2ccc(Cl)cc2)cc1F` [Compound I-0635] is 19 nM; for `CC(C)Oc1ccc(/N=c2\[nH]c(=O)n(CC(=O)NO)c(=O)n2Cc2ccc(Cl)cc2)cc1F` [Compound I-0636] it is 10 nM; for `CC(C)Oc1ccc(/N=c2\[nH]c(=O)n(C[C@H](C)C(=O)O)c(=O)n2Cc2ccc(F)cc2)cc1F` [Compound I-0637] it is 69 nM.

In the case of `CC(C)Oc1ccc(/N=c2\[nH]c(=O)n(C[C@H](O)CO)c(=O)n2Cc2ccc(Cl)cc2)cc1Cl` [Compound I-0638, (R)-1-(4-chlorobenzyl)6-(3-chloro-4-isopropoxyphenylamino)-3-(2,3-dihydroxypropyl)-1,3,5-triazinane-2,4-dion], the IC50 is 6 nM. `CC(C)Oc1ccc(/N=c2\[nH]c(=O)n(C[C@H](C)C(=O)O)c(=O)n2Cc2ccc(F)cc2)cc1` [Compound I-0639]: the IC50 was determined as 216 nM. The same measure for `COC(=O)C(C)(C)n1c(=O)[nH]/c(=N\c2ccc(OC(C)C)c(Cl)c2)n(Cc2ccc(Cl)cc2)c1=O` [Compound I-0640]: 5 nM; for `COc1ccc(Cn2c(=O)[nH]/c(=N\c3ccc(OC(C)C)c(F)c3)n(Cc3ccc(Cl)cc3)c2=O)cn1` [Compound I-0641]: 26 nM. The figure for `COc1cc(Cn2c(=O)[nH]/c(=N\c3ccc(OC(C)C)c(F)c3)n(Cc3ccc(Cl)cc3)c2=O)ccn1` [Compound I-0642] is 5 nM; for `CC(C)Oc1ccc(/N=c2\[nH]c(=O)n(Cc3n[nH]c(=O)o3)c(=O)n2Cc2ccc(Cl)cc2)cc1F` [Compound I-0643] it is 54 nM. The same measure for `CC(C)Oc1ccc(/N=c2\[nH]c(=O)n(CCC(=O)NN)c(=O)n2Cc2ccc(Cl)cc2)cc1F` [Compound I-0644, 1-(4-chlorobenzyl)-6-(3-fluoro-4-isopropoxyphenylimino)-3-(2-hydrazinecarbonylethyl)-1,3,5-triazinane-2,4-dion]: 40 nM; for `CC(C)Oc1ccc(/N=c2\[nH]c(=O)n(CCCS(=O)(=O)O)c(=O)n2Cc2ccc(Cl)cc2)cc1F` [Compound I-0645]: 102 nM; for `CC(C)Oc1ccc(/N=c2\[nH]c(=O)n(CCc3n[nH]c(=O)o3)c(=O)n2Cc2ccc(Cl)cc2)cc1F` [Compound I-0646]: 28 nM. With `Cc1cc(/N=c2\[nH]c(=O)n(C[C@@H](C)C(=O)O)c(=O)n2CC2CCCCC2)ccc1OC(C)C` [Compound I-0647], the IC50 is 316 nM. The same measure for `CCOc1ccc(/N=c2\[nH]c(=O)n(C[C@@H](C)C(=O)O)c(=O)n2CC2CCCCC2)cc1Cl` [Compound I-0648]: 336 nM; for `CC(C)Oc1ccc(/N=c2\[nH]c(=O)n(Cc3ccc(=O)[nH]c3)c(=O)n2Cc2ccc(Cl)cc2)cc1F` [Compound I-0649]: 21 nM. The same measure for `CC(C)Oc1ccc(/N=c2\[nH]c(=O)n(Cc3cc[nH]c(=O)c3)c(=O)n2Cc2ccc(Cl)cc2)cc1F` [Compound I-0650]: 20 nM.

On to `CC(C)Oc1ccc(/N=c2\[nH]c(=O)n(C(C)(C)C(=O)O)c(=O)n2Cc2ccc(Cl)cc2)cc1Cl` [Compound I-0651], for which the concentration for half-maximal inhibition (IC50) was 97 nM. The figure for `CC(C)Oc1ccc(/N=c2\[nH]c(=O)n(CCN/C(=N\C#N)Oc3ccccc3)c(=O)n2Cc2ccc(Cl)cc2)cc1F` [Compound I-0652, 1-(4-chlorobenzyl)-6-(3-fluoro-4-isopropoxyphenylimino)-3-(4-cyanoimino-4-phenoxy-3-azabutyl)-1,3,5-triazinane-2,4-dion] is 102 nM; for `CNC(=NC#N)NCCn1c(=O)[nH]/c(=N\c2ccc(OC(C)C)c(F)c2)n(Cc2ccc(Cl)cc2)c1=O` [Compound I-0653, 1-(4-chlorobenzyl)-6-(3-fluoro-4-isopropoxyphenylimino)-3-(4-cyanoimino-4-methylamino-3-azabutyl)-1,3,5-triazinane-2,4-dion] it is 37 nM.

With `CC(C)Oc1ccc(/N=c2\[nH]c(=O)n(CCS(=O)(=O)O)c(=O)n2Cc2ccc(Cl)cc2)cc1F` [Compound I-0654], the IC50 came to 26 nM. The same measure for `COC(=O)[C@@H](C)Cn1c(=O)[nH]/c(=N\c2ccc(OC(F)F)c(F)c2)n(Cc2ccc(Cl)cc2)c1=O` [Compound I-0655]: 67 nM; for `COC(=O)[C@@H](C)Cn1c(=O)[nH]/c(=N\c2ccc(COC(C)C)cc2)n(Cc2ccc(Cl)cc2)c1=O` [Compound I-0656]: 100 nM. The same measure for `COC(=O)[C@@H](C)Cn1c(=O)[nH]/c(=N\c2ccc(CCO)cc2)n(Cc2ccc(Cl)cc2)c1=O` [Compound I-0657]: 471 nM; for `C[C@@H](Cn1c(=O)[nH]/c(=N\c2ccc(OC(F)F)c(F)c2)n(Cc2ccc(Cl)cc2)c1=O)C(=O)O` [Compound I-0658]: 109 nM; for `CC(C)Oc1ccc(/N=c2\[nH]c(=O)n(CCNC(=N)N)c(=O)n2Cc2ccc(Cl)cc2)cc1F` [Compound I-0659, 1-(4-chlorobenzyl)-6-(3-fluoro-4-isopropoxyphenylimino)-3-(4-imino-4-amino-3-azabutyl)-1,3,5-triazinane-2,4-dion]: 134 nM.

For `COC(=O)Cn1c(=O)[nH]/c(=N\c2ccc(OC(C)C)c(Cl)c2)n(Cc2ccc(Cl)cc2)c1=O` [Compound I-0660], the half-maximal inhibitory concentration (IC50) was found to be 11 nM. The same measure for `CC(C)Oc1ccc(/N=c2\[nH]c(=O)n(C[C@H]3CC(=O)N([C@@H](C)c4ccccc4)C3)c(=O)n2Cc2ccc(Cl)cc2)cc1F` [Compound I-0661]: 7 nM.

As to `CC(C)Oc1ccc(/N=c2\[nH]c(=O)n(C[C@@H]3CC(=O)N([C@H](C)c4ccccc4)C3)c(=O)n2Cc2ccc(Cl)cc2)cc1F` [Compound I-0662], the IC50 is 22 nM.

On to `CC(C)Oc1ccc(/N=c2\[nH]c(=O)n(CC(=O)NC3CCOCC3)c(=O)n2Cc2ccc(Cl)cc2)cc1Cl` [Compound I-0663], for which the IC50 came out at 5 nM. The same measure for `CC(C)Oc1ccc(/N=c2\[nH]c(=O)n(CC(=O)NCC3CCOCC3)c(=O)n2Cc2ccc(Cl)cc2)cc1Cl` [Compound I-0664]: 6 nM; for `CC(C)Oc1ccc(/N=c2\[nH]c(=O)n(CC(=O)NC(CO)CO)c(=O)n2Cc2ccc(Cl)cc2)cc1Cl` [Compound I-0665]: 4 nM. The same measure for `CC(C)Oc1ccc(/N=c2\[nH]c(=O)n(CC(=O)NCCC3CCOCC3)c(=O)n2Cc2ccc(Cl)cc2)cc1Cl` [Compound I-0666]: 8 nM; for `CC(C)Oc1ccc(/N=c2\[nH]c(=O)n(CC(=O)OCC3CCOCC3)c(=O)n2Cc2ccc(Cl)cc2)cc1Cl` [Compound I-0667]: 20 nM; for `CC(C)OCc1ccc(/N=c2\[nH]c(=O)n(C[C@H](C)C(=O)O)c(=O)n2Cc2ccc(Cl)cc2)cc1` [Compound I-0669]: 193 nM.

With `COC(=O)[C@@H](C)Cn1c(=O)[nH]/c(=N\c2ccc(OC(C)C)c(C)c2)n(Cc2ccc(C)cc2)c1=O` [Compound I-0670], the IC50 is 8 nM. As for `COC(=O)[C@@H](C)Cn1c(=O)[nH]/c(=N\c2ccc3oc(C)cc3c2)n(Cc2ccc(C)cc2)c1=O` [Compound I-0671], the IC50 worked out at 15 nM.

As for `CC(C)Oc1ccc(/N=c2\[nH]c(=O)n(CCc3ncn[nH]3)c(=O)n2Cc2ccc(Cl)cc2)cc1F` [Compound I-0672, 1-(4-chlorobenzyl)-6-(3-fluoro-4-isopropoxyphenylimino)-3-[2-(1,2,4-triazol-5-yl)ethyl]-1,3,5-triazinane-2,4-dion], the IC50 turned out to be 8 nM.

Regarding `CC(C)Oc1ccc(/N=c2\[nH]c(=O)n(CC(=O)OC3CCOCC3)c(=O)n2Cc2ccc(Cl)cc2)cc1Cl` [Compound I-0673], the IC50 stood at 8 nM. The figure for `CC(C)Oc1ccc(/N=c2\[nH]c(=O)n(C3C[C@H]3C(=O)O)c(=O)n2Cc2ccc(Cl)cc2)cc1F` (stereo partly drawn) [Compound I-0674] is 126 nM; for `CC(C)Oc1ccc(/N=c2\[nH]c(=O)n([C@H]3C[C@@H]3C(=O)O)c(=O)n2Cc2ccc(Cl)cc2)cc1F` [Compound I-0675] it is 37 nM; for `COC(=O)C(C)(C)n1c(=O)[nH]/c(=N\c2ccc(O)c(Cl)c2)n(Cc2ccc(Cl)cc2)c1=O` [Compound I-0676] it is 30 nM. The same measure for `CCOc1ccc(/N=c2\[nH]c(=O)n(C[C@H](C)C(=O)OC)c(=O)n2Cc2ccc(C)cc2)cc1Cl` [Compound I-0678]: 8 nM; for `CC(C)Oc1ccc(/N=c2\[nH]c(=O)n(Cc3ncn[nH]3)c(=O)n2Cc2ccc(Cl)cc2)cc1F` [Compound I-0679]: 32 nM; for `Cc1ccc(Cn2c(=O)n(C[C@H](C)C(=O)O)c(=O)[nH]/c2=N\c2ccc(OC(C)C)c(C)c2)cc1` [Compound I-0680]: 26 nM.

As to `Cc1ccc(Cn2c(=O)n(C[C@H](C)C(=O)O)c(=O)[nH]/c2=N\c2ccc3oc(C)cc3c2)cc1` [Compound I-0681], the IC50 worked out at 49 nM. In the case of `CCOc1ccc(/N=c2\[nH]c(=O)n(C[C@H](C)C(=O)O)c(=O)n2Cc2ccc(C)cc2)cc1Cl` [Compound I-0682], the IC50 was 23 nM.

Consider `COc1ncccc1Cn1c(=O)[nH]/c(=N\c2ccc(OC(C)C)c(F)c2)n(Cc2ccc(Cl)cc2)c1=O` [Compound I-0683], for which the half-inhibitory concentration (IC50) came out at 9 nM.

`COc1ccc(CN2C(=O)CC[C@H]2Cn2c(=O)[nH]/c(=N\c3ccc(OC(C)C)c(F)c3)n(Cc3ccc(Cl)cc3)c2=O)cc1` [Compound I-0684]: the IC50 was 30 nM. The figure for `CC(C)Oc1ccc(/N=c2\[nH]c(=O)n(Cc3ccc[nH]c3=O)c(=O)n2Cc2ccc(Cl)cc2)cc1F` [Compound I-0685] is 8 nM.

The values are drawn from patent US9718790B2, “Triazine derivative and pharmaceutical composition having an analgesic activity comprising the same” (SHIONOGI & CO., LTD., priority 2010, dated 2017).
